# Data as given in patent US12263144B2, “Methods of treating IgA nephropathy with thiol-containing molecules” (Accubit LLC—Biotechnology, priority 2020, dated 2025).
# How the values were obtained:
# [1] = tested on: glomerular rIgA deposition; assay: Passive rat model of IgA deposition (rat rIgA injection), glomerular immunofluorescence; assay type: in vivo, Wistar rats; details: rats, 250 mg/kg s.c. daily 2 h before rIgA i.v., 5 days, n=3; control 1384±290
# Procedure: (§1) To establish the passive rat model, 5 mg/kg.BW recombinant rat rIgA, which contained a fraction of poly-rIgA, were i.v. injected daily to six 14-weeks old male Wistar rats (Charles River Labs, USA) for 5 consecutive days. Every day, three rats in each group had received a subcutaneous dose of either 250 mg/kg cysteamine, or buffer control, two hours before the rIgA injection. Twenty-four hours after the last injection of rIgA, kidneys were collected for immunofluorescence detection of deposits with goat-anti-rat IgA antibody (Cat: STAR111, Biorad laboratory). Similarly, a passive IgA nephrophathy mouse model was established by injecting 35 mg/kg purified human IgA1 in BALB/c mice (Charles River Labs). Two hours before IgA1 injection, six mice in each experimental group had each received a pretreatment dose of either 200 mg/kg cysteamine, or PBS, via subcutaneous injection. Two and a half hours after human IgA1 injection, kidneys were harvested, and specimens were stained with FITC-conjugated anti-human IgA antibody (Cat: 2050-02, SouthernBiotech). Plasma samples were collected at 0.5 h, 1 h and 2 h after IgA1 injection of all mice.
# (§2) Frozen tissues were sectioned at 4 μm for IgA detection using goat anti-rat IgA (Cat: STAR111, Bio-Rad Laboratories) at 1:100, or anti-human IgA antibody (Cat: 2050-02, […]) at 1:80 dilution. […]
# Human rIgA1 (poly-rIgA) = biological target: T1, Human rIgA1 (poly-rIgA) (Homo sapiens, UniProt P01876); assay: SEC of human rIgA (HEK293-produced) after treatment; assay type: biochemical; details: human rIgA from HEK293 cells, FIG. 5 B
# T1 construct: IL-2 signal peptide (N, cleaved yes); 6xHis (N); made in house; host or cells: HEK293
# T1 sequence (P01876 121-353 isoform P01876-1): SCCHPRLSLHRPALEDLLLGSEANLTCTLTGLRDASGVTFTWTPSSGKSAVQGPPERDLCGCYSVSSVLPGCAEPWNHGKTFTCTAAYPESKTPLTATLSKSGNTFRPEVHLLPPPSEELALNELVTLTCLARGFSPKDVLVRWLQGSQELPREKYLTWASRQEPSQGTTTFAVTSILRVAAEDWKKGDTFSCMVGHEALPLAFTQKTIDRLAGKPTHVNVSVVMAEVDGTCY
# Procedure: The overall complex size of IgA aggregates was determined either by size-exclusion chromatography (SEC: Superdex 200 Increase 10/300 by GL Cytiva), or by SDS-PAGE. For evaluating the involvement of intermolecular disulfide connectivity in IgA complexes, IgA samples were treated with either reducing agents, such as DTT, TCEP or reduced glutathione (Sigma), or interventional drugs, such as cysteamine (Sigma), WR-1065 (Sigma) and N-Acetyl-L-cysteine (VWR Chemicals) in phosphate-buffered saline (PBS) pH7.4. Before running on SEC, samples were treated with the drugs at indicated concentrations at 37° C. for one hour.
# In the meantime, the SEC column was also equilibrated with PBS supplemented with the reducing agent at the same concentration. For running SEC, 100 μL of the recombinant IgA (concentration varies between 1 mg/mL and 8 mg/mL) or purified native human IgA1 (˜1 mg/mL) was loaded to the column and UV absorption was recorded following elution. Recombinant IgA typically formed two elution peaks: a minor peak of ˜800 kDa poly-rIgA followed by a major peak of ˜170 kDa of monomeric rIgA. The ratios between poly-rIgA and mono-rIgA were calculated as between the corresponding areas under the curve (AUC), and the treatment effect of the thiol agents was judged by the reduction of the poly-rIgA level with a compensatory increase of the mono-rIgA content. […]
# [2] = tested on: glomerular human IgA1 deposition; assay: Passive mouse model of IgA deposition (human IgA1 injection), glomerular immunofluorescence and blood IgA1; assay type: in vivo, BALB/c mice; details: mice, 200 mg/kg s.c. 2 h before human IgA1 injection, n=6; buffer 2293±163
# Procedure: as §1, §2
structure (smiles),measurement,setting,value
NCCS [cysteamine],quantitation of rIgA deposit in glomeruli (Mean±SEM immunofluorescence intensity),[1],523±76
same,poly-rIgA level (SEC),Human rIgA1 (poly-rIgA),reduction of poly-rIgA levels
same,glomerular IgA1 intensity (Mean±SEM),[2],870±193
